Tested on: subjects with moderate-to-severe plaque psoriasis
Test: IGA score, Example 2
Format: in vivo, human
Details: for Subjects achieving IGA Score = 0 at Week 52 / Subjects achieving IGA Score = 0 or 1 at Week 52: non-responder imputation
Text: Described below is a multicenter, long-term extension (LTE), double-blind, dose-ranging, parallel group interventional study in participants from Example 1 to evaluate the long-term efficacy and safety of the hydrochloride salt of the compound of Formula (I) for the treatment of moderate-to-severe plaque psoriasis. Patients from Example 1 continued to receive the same dose of the compound of Formula (I) for an additional 36-week treatment period with a 4-week safety follow up period after the last administration of the compound of Formula (I). Patients randomized to placebo in Example 1 received the compound of Formula (I) at a dose of 100 mg QD starting at Week 16 of Example 1 (FIG. 21).
Secondary endpoints included additional change from baseline of Example 1 in PASI, IGA, and PSSD at Week 52, including the proportions of subjects that achieved PAST 90, PAST 100, an IGA score of cleared (0) or minimal (1), PSSD symptoms score=0, and PSSD signs score=0.

[1] = Placebo → 100 mg QD, crossed over at or after Week 16

CC(=O)NCCCC[C@@H]1NC(=O)[C@H](Cc2c[nH]c3c(C)cccc23)NC(=O)[C@H]([C@@H](C)O)NC(=O)[C@H](CC(N)=O)NC(=O)[C@@H](NC(C)=O)C(C)(C)SSC(C)(C)[C@@H](C(=O)N[C@@H](Cc2ccc(OCCN)cc2)C(=O)N[C@@H](Cc2ccc3ccccc3c2)C(=O)NC2(C(=O)N[C@@H](CCC(=O)O)C(=O)N[C@@H](CC(N)=O)C(=O)N[C@@H](Cc3cccnc3)C(=O)N(C)CC(N)=O)CCOCC2)NC1=O [IL-23 receptor antagonist peptide, Ac-[Pen]*-N-T-[W(7-Me)]-[Lys(Ac)]-[Pen]*-Phe[4-(2-aminoethoxy)]-[2-Nal]-[THP]-E-N-[3-Pal]-Sarc-NH2 (*[Pen]-[Pen]* formdisulfidebond)]
Subjects achieving IGA Score = 0 at Week 52 (25 mg BID): (19.5%)
Subjects achieving IGA Score = 0 or 1 at Week 52 (25 mg BID): (46.3%)
Subjects achieving IGA Score = 0 at Week 52 (25 mg QD): (14.0%)
Subjects achieving IGA Score = 0 or 1 at Week 52 (25 mg QD): (37.2%)
Subjects achieving IGA Score = 0 at Week 52 (50 mg QD): (23.3%)
Subjects achieving IGA Score = 0 or 1 at Week 52 (50 mg QD): (60.5%)
Subjects achieving IGA Score = 0 at Week 52 [1]: 11 (31.4%)
Subjects achieving IGA Score = 0 or 1 at Week 52 [1]: 23 (65.7%)
IGA Score ≤2 (‘Mild’or better), subjects (%) (Week 1, 25 mg BID, N=41): (7.3%)
IGA Score ≤2 (‘Mild’or better), subjects (%) (Week 1, 25 mg QD, N=43): (14.0%)
IGA Score = 0 (‘Cleared’) or 1 (‘Minimal’), subjects (%) (Week 1, 50 mg QD, N=43): (2.3%)
IGA Score ≤2 (‘Mild’or better), subjects (%) (Week 1, 50 mg QD, N=43): (16.3%)
IGA Score = 0 (‘Cleared’) or 1 (‘Minimal’), subjects (%) (Week 1, 100 mg BID, N=42): (2.4%)
IGA Score ≤2 (‘Mild’or better), subjects (%) (Week 1, 100 mg BID, N=42): (23.8%)
IGA Score = 0 (‘Cleared’) or 1 (‘Minimal’), subjects (%) (Week 1, 100 mg QD, N=43): (4.7%)
IGA Score ≤2 (‘Mild’or better), subjects (%) (Week 1, 100 mg QD, N=43): (9.3%)
IGA Score = 0 (‘Cleared’) or 1 (‘Minimal’), subjects (%) (Week 2, 25 mg BID, N=41): (2.4%)
IGA Score ≤2 (‘Mild’or better), subjects (%) (Week 2, 25 mg BID, N=41): (22.0%)
IGA Score ≤2 (‘Mild’or better), subjects (%) (Week 2, 25 mg QD, N=43): (20.9%)
IGA Score = 0 (‘Cleared’) or 1 (‘Minimal’), subjects (%) (Week 2, 50 mg QD, N=43): (7.0%)
IGA Score ≤2 (‘Mild’or better), subjects (%) (Week 2, 50 mg QD, N=43): (34.9%)
IGA Score = 0 (‘Cleared’) or 1 (‘Minimal’), subjects (%) (Week 2, 100 mg BID, N=42): (9.5%)
IGA Score ≤2 (‘Mild’or better), subjects (%) (Week 2, 100 mg BID, N=42): (33.3%)
IGA Score = 0 (‘Cleared’) or 1 (‘Minimal’), subjects (%) (Week 2, 100 mg QD, N=43): (4.7%)
IGA Score ≤2 (‘Mild’or better), subjects (%) (Week 2, 100 mg QD, N=43): (34.9%)
IGA Score = 0 (‘Cleared’) or 1 (‘Minimal’), subjects (%) (Week 4, 25 mg BID, N=41): (17.1%)
IGA Score ≤2 (‘Mild’or better), subjects (%) (Week 4, 25 mg BID, N=41): (51.2%)
IGA Score = 0 (‘Cleared’) or 1 (‘Minimal’), subjects (%) (Week 4, 25 mg QD, N=43): (9.3%)
IGA Score ≤2 (‘Mild’or better), subjects (%) (Week 4, 25 mg QD, N=43): (44.2%)
IGA Score = 0 (‘Cleared’) or 1 (‘Minimal’), subjects (%) (Week 4, 50 mg QD, N=43): (16.3%)
IGA Score ≤2 (‘Mild’or better), subjects (%) (Week 4, 50 mg QD, N=43): (48.8%)
IGA Score = 0 (‘Cleared’) or 1 (‘Minimal’), subjects (%) (Week 4, 100 mg BID, N=42): (38.1%)
IGA Score ≤2 (‘Mild’or better), subjects (%) (Week 4, 100 mg BID, N=42): (69.0%)
IGA Score = 0 (‘Cleared’) or 1 (‘Minimal’), subjects (%) (Week 4, 100 mg QD, N=43): (20.9%)
IGA Score ≤2 (‘Mild’or better), subjects (%) (Week 4, 100 mg QD, N=43): (65.1%)
IGA Score = 0 (‘Cleared’) or 1 (‘Minimal’), subjects (%) (Week 8, 25 mg BID, N=41): (26.8%)
IGA Score = 0 (‘Cleared’), subjects (%) (Week 8, 25 mg BID, N=41): (4.9%)
IGA Score ≤2 (‘Mild’or better), subjects (%) (Week 8, 25 mg BID, N=41): (73.2%)
IGA Score = 0 (‘Cleared’) or 1 (‘Minimal’), subjects (%) (Week 8, 25 mg QD, N=43): (27.9%)
IGA Score = 0 (‘Cleared’), subjects (%) (Week 8, 25 mg QD, N=43): (2.3%)
IGA Score ≤2 (‘Mild’or better), subjects (%) (Week 8, 25 mg QD, N=43): (55.8%)
IGA Score = 0 (‘Cleared’) or 1 (‘Minimal’), subjects (%) (Week 8, 50 mg QD, N=43): (44.2%)
IGA Score = 0 (‘Cleared’), subjects (%) (Week 8, 50 mg QD, N=43): (4.7%)
IGA Score ≤2 (‘Mild’or better), subjects (%) (Week 8, 50 mg QD, N=43): (74.4%)
IGA Score = 0 (‘Cleared’) or 1 (‘Minimal’), subjects (%) (Week 8, 100 mg BID, N=42): (64.3%)
IGA Score = 0 (‘Cleared’), subjects (%) (Week 8, 100 mg BID, N=42): (19.0%)
IGA Score ≤2 (‘Mild’or better), subjects (%) (Week 8, 100 mg BID, N=42): (78.6%)
IGA Score = 0 (‘Cleared’) or 1 (‘Minimal’), subjects (%) (Week 8, 100 mg QD, N=43): (46.5%)
IGA Score = 0 (‘Cleared’), subjects (%) (Week 8, 100 mg QD, N=43): (9.3%)
IGA Score ≤2 (‘Mild’or better), subjects (%) (Week 8, 100 mg QD, N=43): (72.1%)
IGA Score = 0 (‘Cleared’) or 1 (‘Minimal’), subjects (%) (Week 12, 25 mg BID, N=41): (43.9%)
IGA Score = 0 (‘Cleared’), subjects (%) (Week 12, 25 mg BID, N=41): (7.3%)
IGA Score ≤2 (‘Mild’or better), subjects (%) (Week 12, 25 mg BID, N=41): (78.0%)
IGA Score = 0 (‘Cleared’) or 1 (‘Minimal’), subjects (%) (Week 12, 25 mg QD, N=43): (25.6%)
IGA Score = 0 (‘Cleared’), subjects (%) (Week 12, 25 mg QD, N=43): (7.0%)
IGA Score ≤2 (‘Mild’or better), subjects (%) (Week 12, 25 mg QD, N=43): (72.1%)
IGA Score = 0 (‘Cleared’) or 1 (‘Minimal’), subjects (%) (Week 12, 50 mg QD, N=43): (51.2%)
IGA Score = 0 (‘Cleared’), subjects (%) (Week 12, 50 mg QD, N=43): (9.3%)
IGA Score ≤2 (‘Mild’or better), subjects (%) (Week 12, 50 mg QD, N=43): (81.4%)
IGA Score = 0 (‘Cleared’) or 1 (‘Minimal’), subjects (%) (Week 12, 100 mg BID, N=42): (66.7%)
IGA Score = 0 (‘Cleared’), subjects (%) (Week 12, 100 mg BID, N=42): (40.5%)
IGA Score ≤2 (‘Mild’or better), subjects (%) (Week 12, 100 mg BID, N=42): (85.7%)
IGA Score = 0 (‘Cleared’) or 1 (‘Minimal’), subjects (%) (Week 12, 100 mg QD, N=43): (53.5%)
IGA Score = 0 (‘Cleared’), subjects (%) (Week 12, 100 mg QD, N=43): (18.6%)
IGA Score ≤2 (‘Mild’or better), subjects (%) (Week 12, 100 mg QD, N=43): (81.4%)
IGA Score = 0 (‘Cleared’) or 1 (‘Minimal’), subjects (%) (Week 16, 25 mg BID, N=41): (51.2%)
IGA Score = 0 (‘Cleared’), subjects (%) (Week 16, 25 mg BID, N=41): (14.6%)
IGA Score ≤2 (‘Mild’or better), subjects (%) (Week 16, 25 mg BID, N=41): (73.2%)
IGA Score = 0 (‘Cleared’) or 1 (‘Minimal’), subjects (%) (Week 16, 25 mg QD, N=43): (39.5%)
IGA Score = 0 (‘Cleared’), subjects (%) (Week 16, 25 mg QD, N=43): (16.3%)
IGA Score ≤2 (‘Mild’or better), subjects (%) (Week 16, 25 mg QD, N=43): (67.4%)
IGA Score = 0 (‘Cleared’) or 1 (‘Minimal’), subjects (%) (Week 16, 50 mg QD, N=43): (58.1%)
IGA Score = 0 (‘Cleared’), subjects (%) (Week 16, 50 mg QD, N=43): (34.9%)
IGA Score ≤2 (‘Mild’or better), subjects (%) (Week 16, 50 mg QD, N=43): (81.4%)
IGA Score = 0 (‘Cleared’) or 1 (‘Minimal’), subjects (%) (Week 16, 100 mg BID, N=42): (64.3%)
IGA Score = 0 (‘Cleared’), subjects (%) (Week 16, 100 mg BID, N=42): (45.2%)
IGA Score ≤2 (‘Mild’or better), subjects (%) (Week 16, 100 mg BID, N=42): (81.0%)
IGA Score = 0 (‘Cleared’) or 1 (‘Minimal’), subjects (%) (Week 16, 100 mg QD, N=43): (62.8%)
IGA Score = 0 (‘Cleared’), subjects (%) (Week 16, 100 mg QD, N=43): (27.9%)
IGA Score ≤2 (‘Mild’or better), subjects (%) (Week 16, 100 mg QD, N=43): (79.1%)
IGA Score = 0 (‘Cleared’) or 1 (‘Minimal’), subjects (%) (Week 20, 25 mg BID, N=41): (48.8%)
IGA Score = 0 (‘Cleared’), subjects (%) (Week 20, 25 mg BID, N=41): (19.5%)
IGA Score ≤2 (‘Mild’or better), subjects (%) (Week 20, 25 mg BID, N=41): (75.6%)
IGA Score = 0 (‘Cleared’) or 1 (‘Minimal’), subjects (%) (Week 20, 25 mg QD, N=43): (44.2%)
IGA Score = 0 (‘Cleared’), subjects (%) (Week 20, 25 mg QD, N=43): (14.0%)
IGA Score ≤2 (‘Mild’or better), subjects (%) (Week 20, 25 mg QD, N=43): (65.1%)
IGA Score = 0 (‘Cleared’) or 1 (‘Minimal’), subjects (%) (Week 20, 50 mg QD, N=43): (55.8%)
IGA Score = 0 (‘Cleared’), subjects (%) (Week 20, 50 mg QD, N=43): (20.9%)
IGA Score ≤2 (‘Mild’or better), subjects (%) (Week 20, 50 mg QD, N=43): (81.4%)
IGA Score = 0 (‘Cleared’) or 1 (‘Minimal’), subjects (%) (Week 20, 100 mg BID, N=42): (61.9%)
IGA Score = 0 (‘Cleared’), subjects (%) (Week 20, 100 mg BID, N=42): (42.9%)
IGA Score ≤2 (‘Mild’or better), subjects (%) (Week 20, 100 mg BID, N=42): (81.0%)
IGA Score = 0 (‘Cleared’) or 1 (‘Minimal’), subjects (%) (Week 20, 100 mg QD, N=43): (58.1%)
IGA Score = 0 (‘Cleared’), subjects (%) (Week 20, 100 mg QD, N=43): (16.3%)

— patent publication US20260232767A1, “INTERLEUKIN-23 RECEPTOR ANTAGONIST PEPTIDES FOR USE IN THE TREATMENT OF PSORIASIS” (Janssen Pharmaceutica NV, priority 2023, published 2026)
